From patent US7943140B2, “Compositions and methods for the treatment and prophylaxis of multiple strains and subtypes of HIV-1” (priority 2006, dated 2011)
Marks after values point to notes of the source that are not given here.

Assays:
[1] = tested on: HIV-1 Tat (rTat, AA 1-72 variants); assay: Anti-Tat serum antibody titer (ELISA on rTat) after immunization of mice; assay type: in vivo, mouse; settings: for Titer, GMT: mice, 1.0 mg/mouse IP; for 4 week anti-Tat titer GMT: Mouse
Method: (§1) Immunogens prepared as described in Example 1 were taken up in buffered saline and injected IP in mice and rats, and SC in rabbits. Unless otherwise stated mice were immunized IP with 1 mg of Immunogen at Day 0 and Week 2 and serums were obtained at Week 4 for titration. Other regimens and species were as noted in the figures.
(§2) Serums were assayed to determine anti-Tat titers by conventional ELISA methods. Briefly, Maxisorp Immuno plates were coated with 2 ng/well rTat and incubated at 22° C. for 1 hour or 4° C. overnight. After thorough washing with 0.1% triton X 100 buffer, blocking with 1% bovine serum albumin (BSA) and rewashing, serum dilutions were applied and incubated at 22° C. for 1 hour. After incubation, the plates were thoroughly washed with triton-X 100 buffer again and 1/10,000 goat anti-mouse IgG-horseradish peroxidase (HRP) conjugate (or the appropriate reagent for rat or rabbit) was applied. The plates were then incubated for 1 hour at 22° C. then washed thoroughly and developed with ABTS for 45 minutes at room temperature on a shaker table. Absorbance was measured at 405 nm. Control wells lacking serum were measured and the titration endpoint was the reciprocal of the […] dilution with an OD greater than mean+8 SDs.
(§3) Animals were purchased from Harlan Laboratories and acclimated at Molecular Diagnostic Services, Inc., for at least one week before immunization. Both BALBc and C57BL6/BALBc F1 mice were used. Lewis rats were used as indicated. Immunogens prepared as described in Example 1 were taken up in buffered saline and injected IP in mice and rats, and administered subcutaneously in Cynomolgous macaque. Animals were immunized with immunogen at Day 0 and Week 2 (day 14) and serums were obtained at Week 4 (day 28) for titration. Doses/animal are noted in Table 4, along with their anti-Tat titers.
Animals were purchased from Harlan Laboratories and acclimated at Molecular Diagnostic Services, Inc., for at least one week before immunization. Both BALBc and C57BL6/BALBc F1 mice were used. Pam2C-capped immunogens prepared as described in Example 1 were taken up in buffered saline and injected IP. Mice were immunized with 3 injections of 1.0 mg/mouse Pam2C-capped immunogen with titrations before first boost and 2 weeks after each boost according to Table 5.

[2] = tested on: HIV-1 Tat (rTat, AA 1-72 variants); assay: Anti-Tat serum antibody titer (ELISA on rTat) after immunization of rats; assay type: in vivo, rat; settings: for GMT: rats, week 5, against rTat REK, FIG. 11; for 4 week anti-Tat titer GMT: Rat
Method: as §1, §2, §3
Three rats per group were immunized with a different dosage per group of a mixture of all of the experimental immunogens encompassed by the formula Pam3[…] -S-V-D-P-(R/K/N/S)-L-(E/D)-P-W-(K/N)-H-P-G-S-amide (SEQ ID NO: 63); Tat amino acid residue 7, 9, and 12 “wobbles”) with a polar charged sequence flanked by the linkers of the Pam3C (i.e., -S-K-K-K-K-S-). This immunogen is referred to as “TUTI-K4”. Each rat was administered a dose of either 0.1 mg TUTI-K4, or 1 mg TUTI-K4 or 10 mgs TUTI-K4 at day 0. Each rat was boosted with the same dose at week 3. The serum antibody titers for each rat were measured against the full length recombinant Tat (AA 1-72) REK variant protein.

[3] = tested on: full length recombinant Tat; assay: Tat depletion assay (rat immune serum on Protein A beads, sandwich ELISA); assay type: binding, HIV-1; settings: said to be associated with the week 5 titers at all doses (0.1, 1, 10 mg)
Method: Classical techniques to measure Tat depletion could not be used due to the lack of a membrane that retained antibody but permitted rTat diffusion. Briefly, this assay employs beads coated with antibody which are exposed to rTat and incubated. The antibody binds the Tat, depending upon the amount of Tat in solution. This assay thus measures how well the antibodies in the serum deplete the quantity of full length recombinant Tat.
Control: Normal rat serum not-immunized with HIV-1 Tat B cell epitopes (10% or 1%) was bound to Protein A beads and washed.
Samples: IgG of 10% and 1% serum of the immunized rat were bound to Protein A beads and washed. Undiluted serum has an anti-Tat titer of 1,000,000, as determined according to the method described in Example 3.
Both the Protein A beads of control and of samples were then incubated at room temperature for 30 minutes with a rTat solution. After centrifugation, the levels of Tat in supernatant were measured with a sandwich ELISA. The free Tat after exposure to 10% or 1% immune serum protein A coated beads was expressed as a percentage of the free Tat after exposure to 10% or 1% normal […] serum protein A coated beads, respectively.

[4] = Toxicity of immunogen dose in mice; assay type: in vivo; settings: Mouse; 10.0 mg/animal (400 mg/kg)
Description: as §3

[5] = tested on: HIV-1 Tat (rTat); assay: Anti-Tat serum antibody titer (ELISA on rTat) after immunization of Cynomolgous macaque; assay type: in vivo; settings: 10.0 mg/animal subcutaneously at Day 0 and Week 2
Method: as §2
as §3, with “Animals were immunized with immunogen at Day 0 and Week 2 (day 14) and serums were obtained at Week 4 (day 28) for titration. Doses/animal are noted in Table 4, along with their anti-Tat titers.” left out

[6] = 1.0 mg/animal IP at Day 0 and Week 2

Substance: Pam2C-SSQYIKANSKFIGITELSVDP-(R/K/N/S)-L-(E/D)-P-W-(K/N)-H-P-G-S-amide [Pam2-QYIK-TEP1]
- Titer, GMT ([1]; prime boost D0, W2, W4, bleed week 2): 140,000
- Titer, GMT ([1]; prime boost D0, W2, W4, bleed week 4): 950,000
- Titer, GMT ([1]; prime boost D0, W2, W4, bleed week 6): 750,000
- Titer, GMT ([1]; prime boost D0, W3, W6, bleed week 3): 160,000
- Titer, GMT ([1]; prime boost D0, W3, W6, bleed week 5): 930,000
- Titer, GMT ([1]; prime boost D0, W3, W6, bleed week 8): 3,300,000
- Titer, GMT ([1]; prime boost D0, W4, W8, bleed week 4): 70,000
- Titer, GMT ([1]; prime boost D0, W4, W8, bleed week 6): 400,000
- Titer, GMT ([1]; prime boost D0, W4, W8, bleed week 10): 3,000,000

Substance: Pam3C-SKKKKSQYIKANSKFIGITEL -S-V-D-P-(R/K/N/S)-L-(E/D)-P-W-(K/N)-H-P-G-S-amide [TUTI-K4]
- GMT ([2]; 0.1 mg at day 0 and week 3): about 500,000
- GMT ([2]; 1 mg at day 0 and week 3): about 1,000,000
- GMT ([2]; 10 mg at day 0 and week 3): about 1,000,000
- reduction of free Tat levels [3]: greater than 99%

Substance: Pam3C-SSQYIKANSKFIGITELSVDP-(R/K/N/S)-L-(E/D)-P-W-(K/N)-H-P-G-S-amide [Pam3-QYIK-TEP1]
- toxicity [4]: Lethal**
- 4 week anti-Tat titer GMT [5]: 900,000
- 4 week anti-Tat titer GMT [2, 6]: 170,000
- 4 week anti-Tat titer GMT ([2]; 10.0 mg/animal IP at Day 0 and Week 2): 460,000
- antibody titers (GMT) in serum ([2]; single rat, prime day 0, boosts at 3 and 6 weeks, bleed at 8 weeks, on all eight rTat (AA1-72) variants, FIG. 9): > 1,000,000
- 4 week anti-Tat titer GMT [1, 6]: 120,000*
- 4 week anti-Tat titer GMT ([1]; 3.0 mg/animal IP at Day 0 and Week 2): 220,000
- geometric mean antibody titers in serum ([1]; single mouse, on all eight rTat (AA 1-72) immunodominant epitope variants, FIG. 2): > 100,000
